Holding throughout (format): in vivo
In test [1] the test system is Corn (cultivar: PIONEER 120 31P41). Put plainly: Test Example 13: corn soil irrigation, low-temperature stress, growth and chlorophyll. Particulars: soil irrigation 20 ml, low-temperature stress 2 to 4° C. 5 days. On the procedure:
Corn seeds (cultivar: PIONEER 120 31P41) are sown in the culture soil (AISAI) in plastic pots (55 mm in diameter×58 mm in height) and grown for 7 days under the following conditions: temperature, 20 to 25° C.; humidity, 50 to 75%; illuminance, about 5,000 lux; day length, 16 hours. A DMSO solution of compound (1b) at a 1,000-fold concentration relative to each test concentration is diluted with distilled water to prepare a test soultion. Twenty (20) ml of the test solution obtained is applied around the base of each plant by soil irrigation, and then the plants are grown for two days under the following conditions: temperature, 27° C., humidity, 50 to 75%; illuminance, about 5,000 lux; day length 16 hours. This group is the present compound-treated group. The group to which 20 ml of a 0.1% aqueous DMSO solution is applied by soil irrigation in place of the DMSO solution of compound (1b) is used as the non-treated group. The plants subjected to the soil irrigation are grown for 5 days under the following conditions, to expose the plants to low-temperature stress: temperature, 2 to 4° C.; humidity, 40 to 70%, illuminance, about 5,000 lux; day length, 16 hours in a phytotron. After the exposure to low-temperature stress, the plants are grown for 4 days under the conditions of a temperature off20 to 25° C., a humidity of 50 to 75%, an illuminance of about 5,000 lux, and a day length of 16 hours. Then the plant weight and the length of true leaves are measured. Also, after the exposure to low-temperature stress, the plants are grown for 1 day under the conditions of a temperature of 20 to 25° C., a humidity of 50 to 75%, an illuminance of about 5,000 lux, and a day length of 16 hours. Then the chlorophyll fluorescence (Fv/Fm) is measured using a pulse modulation chlorophyll fluorometer (MAXI-IMAGING-PAM, WALZ). The chlorophyll content is measured using a chlorophyll gauge (SPAD-502; manufactured by KONICA MINOLTA).

Test [2] has as its system corn seeds (cultivar: Kuromochi). Put plainly: Test Example 1: corn seed coating, fresh weight of above-ground part after 18 days. Particulars: for Average fresh weight of above-ground part: seed coating, grown 18 days at 27° C., non-treated 4.2 g. The procedure:
A blank slurry solution containing 5% (V/V) color coat red (Becker Underwood, Inc.), 5% (V/V) CF-Clear (Becker Underwood, Inc.) and 0.4% Maxim XL (Syngenta) was prepared. […] In a 50-ml centrifuge tube (manufactured by BD Japan), 0.48 ml of the slurry solution was placed for each 20 g of corn seeds (cultivar: Kuromochi) and stirred until the solution was dried, thereby coating the seeds. As a control, seeds were coated with the blank slurry solution and used as seeds for a non-treated group. Two treated corn seeds were sown in the culture soil (AISAI) in each plastic pot (55 mm in diameter×58 mm in height) and grown for 18 days under the following conditions: temperature, 27° C.; illuminance, about 5,000 lux; day length, 16 hours. The fresh weight of the above-ground part of the plants was measured. The experiment was performed in four replications for each treatment condition and the average weight per individual was calculated.

Test [3] relates to Arabidopsis thaliana (ecotype Columbia). The test can be described thus: Test Example 7: Arabidopsis seedlings in medium, high-temperature stress, leaf area. As to conditions: 30 ppm in medium; high-temperature stress 45° C. 60 minutes; 8 days after; non-treated 3.4 mm^2. On the procedure: In a Petri dish, a hydroponic sponge piece (1 cm×1 cm×0.2 cm) was immersed with a half concentration of Murashige-and-Skoog medium (MS culture medium: containing 2.5 mM MES, 1% sucrose and 0.1% Gamborg vitamin solution G1019 (Sigma-Aldrich)). On this sponge piece, 4 to 5 seeds of Arabidopsis thaliana (ecotype Columbia) were aseptically sown. After the low temperature treatment (at 4° C. for 2 to 4 days), the plants were grown for 6 days under the following conditions to obtain Arabidopsis seedlings: temperature, 23° C.; humidity, 45%; illuminance, 3,500 lux; day length, 16 hours. Each 0.5 ml of a half concentration of MS medium was dispensed into a 24-well plate (SUMILON MS-80240; manufactured by Sumitomo Bakelite), onto which […] of a 1,000-fold concentrated DMSO solution of compound (1b) was added to prepare medium containing compound (1b) at a concentration of 30 ppm. After thinning the Arabidopsis seedlings to 2 plants per sponge, the seedlings were transplanted in the compound (1b)-containing medium in each well of the 24-well plate, together with the sponge piece and then grown overnight. […] Each well was photographed with a digital camera and the green area in the photograph was measured using image analysis software Win ROOF (manufactured by MITANI CORPORATION), thereby quantifying the leaf areas of the plants.

Consider `CNC(=O)C(OC)c1ccccc1COc1cc(C)ccc1C` (racemic) [Compound (1b), N-methyl-2-[2-(2,5-dimethylphenoxy)methyl]phenyl-2-methoxyacetamide], for which, in test [1] (then 1 day growth), the “chlorophyll fluorescence (Fv/Fm) as compared with the non-treated group” value is “increases”. In addition, the “length of true leaves as compared with the non-treated group” value in test [1] (then 4 days growth) is reported as “increased”. In test [1] (then 4 days growth), the “plant weight as compared with the non-treated group” value is recorded as “increased”. For the same compound, the “chlorophyll content as compared with the non-treated group” value in test [1] (chlorophyll gauge SPAD-502) is given as “increases”. In addition, the “Relative value (fresh weight of above-ground part)” value in test [2] (12.5 g/ of seeds, non-treated = 100) was determined as 105%. Besides, in test [2] (amount ranging from 10 g to 50 g per 100 kg of seeds), the “fresh weight of the above-ground part as compared with the control group” value is reported as “increased”. Further, the “Average fresh weight of above-ground part” value in test [2] (amount of compound 10 g/ of seeds) is reported as 4.4 g; in test [2] (amount of compound 12.5 g/ of seeds), 4.4 g; in test [2] (amount of compound 25 g/ of seeds), 5.0 g; in test [2] (amount of compound 50 g/ of seeds), 4.5 g. Also, the “Mean leaf area of plants” value in test [3] came out at 12.6 mm^2.

The values are drawn from patent US20130324413A1, “METHOD FOR PROMOTING PLANT GROWTH” (SUMITOMO CHEMICAL COMPANY, LIMITED, priority 2011, published 2013).
